From PubChem BioAssay (NCI)
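All cell lines were grown in 96-well plates and treated with compound for 48 hours. GI50 marks 50% less growth. TGI: concentration producing complete growth inhibition.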

What was measured:
Experiment in all cases: NCI tumour cell line growth inhibition, 48 h
HCT-116 colon = tested on: HCT-116 colon
SF-295 CNS = tested on: SF-295 CNS
SW-620 colon = tested on: SW-620 colon
MCF7 breast = tested on: MCF7 breast
SF-539 CNS = tested on: SF-539 CNS
ACHN renal = tested on: ACHN renal
U251 CNS = tested on: U251 CNS
LOX IMVI melanoma = tested on: LOX IMVI melanoma
NCI-H23 lung = tested on: NCI-H23 lung
HS 578T breast = tested on: HS 578T breast
OVCAR-3 ovarian = tested on: OVCAR-3 ovarian
SF-268 CNS = tested on: SF-268 CNS
NCI-H460 lung = tested on: NCI-H460 lung
MOLT-4 leukemia = tested on: MOLT-4 leukemia
K-562 leukemia = tested on: K-562 leukemia
SR leukemia = tested on: SR leukemia
MDA-MB-231 breast = tested on: MDA-MB-231 breast
RXF 393 renal = tested on: RXF 393 renal
CAKI-1 renal = tested on: CAKI-1 renal
HOP-62 NSCLC = tested on: HOP-62 NSCLC
SN12C renal = tested on: SN12C renal
HOP-92 NSCLC = tested on: HOP-92 NSCLC
DU-145 prostate = tested on: DU-145 prostate
HCC-2998 colon = tested on: HCC-2998 colon
A498 renal = tested on: A498 renal
SK-MEL-2 melanoma = tested on: SK-MEL-2 melanoma
PC-3 prostate = tested on: PC-3 prostate
NCI-H226 lung = tested on: NCI-H226 lung
MDA-MB-435 = tested on: MDA-MB-435
T-47D breast = tested on: T-47D breast
CCRF-CEM leukemia = tested on: CCRF-CEM leukemia
786-0 renal = tested on: 786-0 renal
OVCAR-8 ovarian = tested on: OVCAR-8 ovarian
KM12 colon = tested on: KM12 colon
HT29 colon = tested on: HT29 colon
IGROV1 ovarian = tested on: IGROV1 ovarian
EKVX NSCLC = tested on: EKVX NSCLC
HL-60(TB) leukemia = tested on: HL-60(TB) leukemia
BT-549 breast = tested on: BT-549 breast
SNB-19 CNS = tested on: SNB-19 CNS
RPMI-8226 leukemia = tested on: RPMI-8226 leukemia
OVCAR-5 ovarian = tested on: OVCAR-5 ovarian
M14 melanoma = tested on: M14 melanoma
TK-10 renal = tested on: TK-10 renal
A549 NSCLC = tested on: A549 NSCLC
NCI-H522 lung = tested on: NCI-H522 lung
SK-MEL-5 melanoma = tested on: SK-MEL-5 melanoma
UO-31 renal = tested on: UO-31 renal
COLO 205 colon = tested on: COLO 205 colon
NCI/ADR-RES ovarian = tested on: NCI/ADR-RES ovarian
HCT-15 colon = tested on: HCT-15 colon
UACC-62 melanoma = tested on: UACC-62 melanoma
UACC-257 melanoma = tested on: UACC-257 melanoma

Molecule `COc1ccc(/C=C2/SC(Nc3nc(-c4nc(NC5=NC(=O)/C(=C\c6ccc(OC)cc6)S5)sc4C)c(C)s3)=NC2=O)cc1` has a GI50 (HCT-116 colon) of 1200 nM, a TGI (HCT-116 colon) of 9.78 µM and a GI50 (SF-295 CNS) of 255 nM. The TGI (SF-295 CNS) was 4.97 µM, the GI50 (SW-620 colon) was 1310 nM and the TGI (SW-620 colon) was over 50 µM. It also gave a GI50 (MCF7 breast) of 1590 nM, a TGI (MCF7 breast) of over 30.7 µM and a GI50 (SF-539 CNS) of 1360 nM. For the same molecule, the TGI (SF-539 CNS) was 3.95 µM, the GI50 (ACHN renal) was 838 nM and the TGI (ACHN renal) was 9.74 µM. For the same molecule, the GI50 (U251 CNS) was 1300 nM, the TGI (U251 CNS) was 7.32 µM and the GI50 (LOX IMVI melanoma) was 935 nM. It also gave a TGI (LOX IMVI melanoma) of 9.27 µM, a GI50 (NCI-H23 lung) of 944 nM and a TGI (NCI-H23 lung) of 4.97 µM. It also gave a GI50 (HS 578T breast) of 288 nM, a TGI (HS 578T breast) of 1610 nM and a GI50 (OVCAR-3 ovarian) of 188 nM. For the same molecule, the TGI (OVCAR-3 ovarian) was 3.25 µM, the GI50 (SF-268 CNS) was 2790 nM and the TGI (SF-268 CNS) was over 33.8 µM. It also gave a GI50 (NCI-H460 lung) of 1400 nM, a TGI (NCI-H460 lung) of over 31.7 µM and a GI50 (MOLT-4 leukemia) of 8.87 µM. It also gave a TGI (MOLT-4 leukemia) of over 50 µM, a GI50 (K-562 leukemia) of 631 nM and a TGI (K-562 leukemia) of over 16.2 µM. It also gave a GI50 (SR leukemia) of 140 nM, a TGI (SR leukemia) of over 50 µM and a GI50 (MDA-MB-231 breast) of 1350 nM. It also gave a TGI (MDA-MB-231 breast) of 7.14 µM, a GI50 (RXF 393 renal) of 1530 nM and a TGI (RXF 393 renal) of 7.23 µM. It also gave a GI50 (CAKI-1 renal) of 368 nM, a TGI (CAKI-1 renal) of 3.16 µM and a GI50 (HOP-62 NSCLC) of 485 nM. It also gave a TGI (HOP-62 NSCLC) of 4.92 µM, a GI50 (SN12C renal) of 1960 nM and a TGI (SN12C renal) of 9.19 µM. For the same molecule, the GI50 (HOP-92 NSCLC) was 6.15 µM, the TGI (HOP-92 NSCLC) was 19.1 µM and the GI50 (DU-145 prostate) was 2430 nM. It also gave a TGI (DU-145 prostate) of over 19.7 µM, a GI50 (HCC-2998 colon) of 820 nM and a TGI (HCC-2998 colon) of 3.66 µM. For the same molecule, the GI50 (A498 renal) was 806 nM, the TGI (A498 renal) was 4.22 µM and the GI50 (SK-MEL-2 melanoma) was 15.2 µM. The TGI (SK-MEL-2 melanoma) was over 50 µM, the GI50 (PC-3 prostate) was 787 nM and the TGI (PC-3 prostate) was 9.95 µM. For the same molecule, the GI50 (NCI-H226 lung) was 4.98 µM, the TGI (NCI-H226 lung) was 24.9 µM and the GI50 (MDA-MB-435) was 143 nM. The TGI (MDA-MB-435) was 633 nM, the GI50 (T-47D breast) was 7.52 µM and the TGI (T-47D breast) was over 50 µM. For the same molecule, the GI50 (CCRF-CEM leukemia) was 1680 nM, the TGI (CCRF-CEM leukemia) was over 50 µM and the GI50 (786-0 renal) was 1070 nM. The TGI (786-0 renal) was 4.18 µM, the GI50 (OVCAR-8 ovarian) was 1710 nM and the TGI (OVCAR-8 ovarian) was 16.7 µM. For the same molecule, the GI50 (KM12 colon) was 196 nM, the TGI (KM12 colon) was 5.77 µM and the GI50 (HT29 colon) was 1990 nM. For the same molecule, the TGI (HT29 colon) was over 50 µM, the GI50 (IGROV1 ovarian) was 5.26 µM and the TGI (IGROV1 ovarian) was over 50 µM. The GI50 (EKVX NSCLC) was 213 nM, the TGI (EKVX NSCLC) was 2430 nM and the GI50 (HL-60(TB) leukemia) was 397 nM. For the same molecule, the TGI (HL-60(TB) leukemia) was over 21.9 µM, the GI50 (BT-549 breast) was 2230 nM and the TGI (BT-549 breast) was 22.2 µM. The GI50 (SNB-19 CNS) was 5.81 µM, the TGI (SNB-19 CNS) was over 50 µM and the GI50 (RPMI-8226 leukemia) was 572 nM. It also gave a TGI (RPMI-8226 leukemia) of 3.21 µM, a GI50 (OVCAR-5 ovarian) of 5.18 µM and a TGI (OVCAR-5 ovarian) of 24.5 µM. The GI50 (M14 melanoma) was 499 nM, the TGI (M14 melanoma) was 2360 nM and the GI50 (TK-10 renal) was 172 nM. For the same molecule, the TGI (TK-10 renal) was 770 nM, the GI50 (A549 NSCLC) was 1140 nM and the TGI (A549 NSCLC) was 17.2 µM. It also gave a GI50 (NCI-H522 lung) of 2140 nM, a TGI (NCI-H522 lung) of over 25.9 µM and a GI50 (SK-MEL-5 melanoma) of 282 nM. The TGI (SK-MEL-5 melanoma) was 3.93 µM, the GI50 (UO-31 renal) was 4.27 µM and the TGI (UO-31 renal) was over 32.2 µM. It also gave a GI50 (COLO 205 colon) of 2420 nM, a TGI (COLO 205 colon) of over 50 µM and a GI50 (NCI/ADR-RES ovarian) of 648 nM. For the same molecule, the TGI (NCI/ADR-RES ovarian) was 4.39 µM, the GI50 (HCT-15 colon) was 397 nM and the TGI (HCT-15 colon) was 7.82 µM. It also gave a GI50 (UACC-62 melanoma) of 320 nM, a TGI (UACC-62 melanoma) of 6.62 µM and a GI50 (UACC-257 melanoma) of 2220 nM. For the same molecule, the TGI (UACC-257 melanoma) was 15.4 µM.
